This is an account of results in US6482402B1, “Antimicrobial compositions and methods” (GelTex Pharmaceuticals, Inc., priority 1999, dated 2002).

“And” between values parts separate entries of the source, which are not always exact repeats. Identical values can stand only once.

The test system of assay [1] is C. parvum oocysts. Nature of the assay: In vitro C. parvum infectivity in Madin Darby Bovine Kidney cells (fluorescent antibody count of infected cells). The assay is classed as cell-based, Cryptosporidium parvum. The note with it: MDBK cells, 46 hours of infection, means of 12 high powered fields. The procedure:
Activity of polyfensin compounds for Cryptosporidium parvum in vitro. Combination therapy of Polymer B with paromomycin Madin Darby Bovine Kidney cells were infected with C. parvum oocysts in the presence of media alone, paromomycin (2 and 0.25 mg/ml), Polymer B (0.01 or 0.001 mg/ml) or Polymer B (0.01 or 0.001 mg/ml) plus paromomycin at 0.25 mg/ml. After 4 hours of treatment, polymer was removed and replaced with media. After 46 hours of infection the monolayers were fixed, stained with fluorescent antibodies to cryptosporidium, and the numbers of infected cells were enumerated. Parasite numbers represent the means of 12 high powered fields, and numbers of parasites were normalized relative to treatment with media alone (arbitrarily set at 100). […] In vitro Combination therapy of Polymer A with paromomycin. Madin Darby Bovine kidney cells were infected with C. parvum oocysts in the presence of media alone, paromomycin (2 and 0.25 mg/ml), Polymer A (0.01 or 0.001 mg/ml) or Polymer A (0.0 1 or 0.00 1 mg/ml plus paromomycin at 0.25 mg/ml). After 4 hours of treatment, polymer was removed and replaced with media. After 46 hours of infection the monolayers were fixed, stained with fluorescent antibodies to cryptosporidium, and the numbers of infected cells were enumerated. Parasite numbers represent the means of 12 high powered fields, and numbers of parasites were normalized relative to treatment with media alone (arbitrarily set at 100).

In assay [2] the test system is C. parvum oocysts. Put plainly: In vivo oocyst shedding in C. parvum infected SCID mice. To be noted: SCID mice infected day 0; prm alone 500 mg/kg/day by oral gavage from day 7; fecal smears, acid fast staining; water alone 25. The method, then:
In vivo activity of selected polymers in combination with parmomycin
Severe combined immunodeficient mice (SCID) were infected with C. parvum oocysts on day 0. On day 7, mice were treated with water or Polymers A, E and D by delivery in maple flavored drinking water at 2000 mg/kg/day. For each treatment, mice additionally received water or 500 mg/kg/day paromomycin (prm) by oral gavage. Oocyst shedding was quantitated in fecal smears by acid fast staining. Average numbers of oocysts shed were as follows: Treatment with water alone, 25; treatment with prm alone 12. Treatment with polymers alone gave modest changes in oocysts shedding and ranged from ˜20% reduction in oocysts; to a ˜20% increase in shedding, relative to treatment with water alone. Combination of polymers with prm gave reductions in oocysts in the range of 50-90% relative to treatment with prm alone.

For `NC[C@@H]1O[C@H](O[C@H]2[C@@H](O)[C@H](O[C@@H]3[C@@H](O)[C@H](N)C[C@H](N)[C@H]3O[C@H]3O[C@H](CO)[C@@H](O)[C@H](O)[C@H]3N)O[C@@H]2CO)[C@H](N)[C@@H](O)[C@@H]1O` [paromomycin], the “parasite numbers normalized relative to treatment with media alone (arbitrarily set at 100)” value in the assay with C. parvum oocysts [1] (paromomycin alone at 0.25 mg/ml) was 61.5 and 73.0; in the assay with C. parvum oocysts [1] (paromomycin alone at 2 mg/ml) it was 15.3; in the assay with C. parvum oocysts [1] (paromomycin alone at 2 mg/ml, listed as parmomycin), 15.4. Further, the “Average numbers of oocysts shed” value in the assay on C. parvum oocysts [2] stood at 12.
